Assay results reported in patent US20070099232A1, “Ecdysone receptor ligand-binding domain structure” (priority 2003, published 2007).

Columns and labels:
BtEcR = BtEcR competitive binding assay with [3H]-ponasterone A as tracer; design: species or system Bemisia tabaci
From the text: As will be readily understood by persons skilled in this field, the methods of the present invention provide a rational method for designing and selecting compounds which interact with an ecdysone receptor and specifically that of B. tabaci. In the majority of cases these compounds will require further development in order to increase activity. Such further development is routine in this field and will be assisted by the structural information provided in this application and screens employing EcR and optionally USP nucleotide and/or polypeptide sequences. In vitro competitive binding screens compete unlabelled test compounds against a labelled ligand (tracer) to observe if they inhibit the binding of the latter to functional receptor LBDs. In vitro competition binding screens may utilise LBD sequences or D (linker) domain sequences linked to LBD sequences. In vivo cell-based screens employ full-length EcR and optionally full-length USP nucleotide sequences functionally linked to suitable promoters for expression in mammalian, insect or yeast cells containing a suitable reporter gene construct. Alternatively, in vivo cell-based screens may employ the EF or DEF domain encoding regions of EcR and optionally of USP nucleotide sequences functionally linked to nucleotide sequences encoding domains from other transcription factors. In particular, the BtEcR nucleotide sequence (SEQ ID NO 1) and/or polypeptide sequence (SEQ ID NO 2) and optionally BtUSP nucleotide sequence and/or polypeptide sequence or the corresponding EF or DEF domains may be utilised in screens to develop improved compounds derived by rational design employing the B. tabaci EcR/USP crystal structure. It is intended that in particular embodiments the methods of the present invention includes such further developmental steps.
Biological assays to measure the activity of ecdysone receptor agonists and antagonists are well known in the field. Traditional screens for ecdysone receptor agonists examine candidate compounds for an ability to induce the moulting or pupation of whole insect larvae (Becker, 1941; Cymborowski, 1989), the evagination of imaginal discs (Fristrom J. W. & Yund, 1976) or morphological transformation of the Drosophila BII cell line (Clément et al., 1993). More recent assays use mammalian or other eukaryotic cells that have been co-transfected with a recombinant ecdysone receptor and a reporter gene linked to an appropriate response element Both types of screen can also be reformatted to detect non-agonist ligands (antagonists), which can be recognised by their ability to inhibit the activation the receptor by an agonist provided as a standard component of the assay (Yang et al., 1986; Oberdorster et al., 2001)(Oberdorster et al, 2001). […] In addition, potential agonists and antagonists may be screened for their ability to inhibit the binding of europium-labelled ecdysone receptor ligands to soluble, recombinant ecdysone receptor in a microplate-based format Europium is a lanthanide fluorophore, the presence of which can be measured using time-resolved fluorometry. […] Binding affinity and inhibitor potency may also be measured for candidate inhibitors using biosensor technology. […]

[1] = test system: Choristoneura fumiferana EcR A110P; conditions: single point mutation A110P; cited from earlier work
[2] = test system: whitefly (B. tabaci) receptor; experiment: In vitro binding studies employing purified recombinant LBDs (whitefly receptor); design: species or system Bemisia tabaci; conditions: unpublished results
From the text: (§1) Table 3 presents the inter-order variation apparent across a variety of Insecta EcR LBDs for those residues that line the ecdysteroid binding pocket observed in the B. tabaci structure. […] For example, in the hemipteran B. tabaci (resistant to the bisacylhydrazine compounds) residue 272 is methionine, whereas in lepidopteran species (susceptible to bisacylhydrazines) the residue at this position is a smaller valine. Attention has also been drawn to the potential importance of the residue at this position in relation to the control spectrum of bisacylhydrazine insecticides in the communication by Billas et al. (2003) reporting the crystal structure of the lepidopteran Heliothis virescens EcR/USP heterodimeric LBD. It is apparent from Table 3 of the present application that the methionine at position 272 is present in the Hemiptera, Diptera, Orthoptera and Coleoptera while the residue in this position of the Lepidoptera is valine. […] Clearly the response to bisacylhydrazines is not simply dependent on the residue at the position corresponding to 272 in B. tabaci.

[3] = target: T1, dipteran (Lucilia cuprina) receptor (Lucilia cuprina, UniProt O18531); experiment: In vitro binding studies employing purified recombinant LBDs (dipteran receptor); conditions: unpublished results
T1 construct: made in house
T1 sequence (O18531 442-677 limits assumed): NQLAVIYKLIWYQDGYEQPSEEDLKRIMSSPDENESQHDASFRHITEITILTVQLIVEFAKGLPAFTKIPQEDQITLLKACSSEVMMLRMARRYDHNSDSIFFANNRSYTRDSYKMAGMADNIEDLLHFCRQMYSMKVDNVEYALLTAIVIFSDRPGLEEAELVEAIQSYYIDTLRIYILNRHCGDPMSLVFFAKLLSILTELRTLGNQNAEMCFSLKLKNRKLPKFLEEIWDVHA
From the text: as §1

[4] = test system: Lepidotera versus Diptera; conditions: selectivity at the level of insect orders; cited from earlier work
[5] = test system: BtEcR/BtUSP heterodimer binding to EcRE DNA; experiment: Electrophoretic mobility shift assay (EMSA) of receptor binding to EcRE (hsp27 response element); type: biochemical, Bemisia tabaci; conditions: in the presence of 5mM MgCl2; compared to binding without hormone
Experimental: DNA binding function was assessed by electrophoretic mobility shift assay (EMSA). For these experiments, EcR and USP proteins were translated as above but using unlabelled methionine. The EcRE probe (hsp27 response element) was prepared by α-^32P labelling 5 pmol of annealed oligo (5′[…]3′ and 5′[…]3′) with Klenow ([…] Labelling Kit, Geneworks). This mix was then phenol/chloroform extracted, ethanol precipitated and resuspended in 100 μl of TE. Binding and electrophoresis were performed as described by (Molloy, 2000). For a 20 μl reaction mix, 2.5 μl of each translated extract was incubated with 8.0 μl of BufferA (20 mM HEPES pH 7.9, 100 mM KCI, 2 mM dithiothreitol (DTT), 1 mM EDTA, 20% (v/v) glycerol), 2 μl of 2% (v/v) NP-40, 1 μl BSA (10 mg/ml), 0.5 μl 2 mg/ml poly (dI-dC).poly(dI-dC), 6 μg single stranded DNA plus or minus 1 μl of 100 mM MgCl2. After 20 minutes at room temperature, 0.05 pmoles of labelled probe was added and the mix was incubated again for 20 minutes. One sample also had the addition of excess (1.25 pmoles) unlabelled EcRE DNA. 10 μl of the mix was analysed by electrophoresis at 4° C., 80 V in a 0.25×TBE, 5% polyacrylamide gel. After fixing and drying, radioactive species were visualized by the Molecular Dynamics Phosphorimaging system. […]

[6] = target: recombinant B. tabaci receptor LBD (BtEcR/BtUSP heterodimer); experiment: Equilibrium binding studies with [3H]-ponasterone A as ligand; design: species or system Bemisia tabaci; conditions: by direct curve fitting, recombinant heterodimeric LBD
Experimental: Pilot-scale expression of recombinant heterodimeric BtEcR-BtUSP LBD was achieved by infection of suspension cultures of Sf9, Sf21 and or Hi-5 insect cells in spinner flasks or Schott bottles on a shaker platform maintained at 27° C. Insect cells infected with the virus engineered to express BtEcR/BtUSP ligand-binding domain were shown by gel electrophoresis to contain the expressed polypeptides corresponding to the two tagged domains.

In the case of `O=C(CSC1NCCN1)c1ccccc1` [IV], the “binding in BtEcR competitive binding assay” value (BtEcR) is reported as “weak-moderate binding”.

For `CCc1c(OC)cccc1C(=O)NN(C(=O)c1cc(C)cc(C)c1)C(C)(C)C` [RG-102240], the “effect of A110P point mutation on response of receptor to ligand” value [1] is given as “without affecting response”.

In the case of `CCc1ccc(C(=O)NN(C(=O)c2cc(C)cc(C)c2)C(C)(C)C)cc1` [RH5992], the “binding in BtEcR competitive binding assay” value (BtEcR) is reported as “negligible binding”, the “affinity of receptor for compound” value [2] is reported as “only very low affinity” and the “affinity of receptor for compound” value [3] is reported as “significant affinity”. For the same compound, the “effectiveness against Lepidotera relative to Diptera” value [4] was “two to three orders of magnitude more effective”.

With `O=C1OC(c2cccs2)=N/C1=C/c1ccccc1` [compound III] the “binding in BtEcR competitive binding assay” value (BtEcR) was “weak-moderate binding”.

In the case of `CC(C)(C)C(=O)N1N=C(c2ccccc2)OC1(C)c1ccc(F)cc1` (centres unmarked) [compound II], the “binding in BtEcR competitive binding assay” value (BtEcR) is reported as “negligible binding”.

In the case of `CC(C)(C)N(NC(=O)c1ccccc1)C(=O)c1ccccc1` [compound I], the “binding in BtEcR competitive binding assay” value (BtEcR) is reported as “negligible binding”.

With `CC(C)CC[C@@H](O)[C@](C)(O)[C@H]1CC[C@@]2(O)C3=CC(=O)[C@@H]4C[C@@H](O)[C@@H](O)C[C@]4(C)[C@H]3CC[C@]12C` [ponasterone A] the “effect of hormone on binding of receptor heterodimer to EcRE” value [5] was “clearly enhanced binding” and the Kd [6] was 1.21 ± 0.17 nM.
